In patent US20230087078A1, “COMPOSITIONS AND METHODS FOR THE TREATMENT OF PANCREATIC CANCER” (Washington University, priority 2020, published 2023):

Tests used:
[1] = tested on: p-p38, p-MK2, and p-Hsp27; assay: Immunoblot of SN38-induced p-p38, p-MK2, p-Hsp27 and apoptosis with upstream kinase inhibitors; assay type: cell-based, human; conditions: inhibitor in combination with SN38
Protocol: FIG. 3A contains immunoblot images showing p-p38, p-MK2, and p-Hsp27 activation in MIA paca-2 and Pa01c cells treated with SN38 10 μM for 16 hours alone or with IRAK4 inhibitor 4 μM, HCQ 20 μM, ATM inhibitor 20 μM, ATR inhibitor 20 μM, or TAK1 inhibitor 2 μM.
FIG. 3B contains immunoblot images of MIA paca-2 and Pa01c cells treated with SN38 10 μM alone for 16 hours or in combination with TAK1 inhibitor 2 μM for 16 hours.
To investigated the mechanism by which DNA damage activates MK2 and Hsp27, PDAC cells were treated with SN38 alone or in combination with inhibitors of IRAK4 (PF06650833), TLR9 (hydroxychloroquine, or HCQ), ATM (KU55933), ATR (VE821), and TAK1 (5z-7-oxozeanol).

[2] = tested on: TNFα mRNA expression; assay: qPCR of cytokine expression after SN38, Pa01c; assay type: cell-based, human; conditions: for SN38-induced induction of TNFα: inhibitor 2 μM before SN38
Protocol: (§1) FIG. 3D contains graphs summarizing the results of qPCR for TNFα, TNFβ, TGFβ, IL-1α, and IL-1β in Mia paca-2 (right) and Pa01c (left) cells treated with control or SN38 10 μM for 16 hours. P values from two-away ANOVA with Dunnett's multiple comparison test and error bars are mean+SEM. ***P<0.0002, ****P<0.0001.
FIG. 3F is a graph summarizing the results of qPCR showing TNFα expression in Pa01c cells following treatment with SN38 10 μM alone for 16 hours, or in combination with TAKli 2 μM or IKKi 2 μM for 24 hours prior to treatment with SN38 10 μM for 16 hours. P values from two-away ANOVA with Dunnett's multiple comparison test and error bars are mean+SEM. *P<0.0247, **P<0.0025.
(§2) RNAzol RT (Sigma) was used to isolate total RNA. cDNA was made with High Capacity cDNA reverse transcription kit (Thermo Fisher Scientific, 4368814). qPCR was performed with SYBR-Green reagent (Applied Biosciences). All experiments were performed in biological duplicates or triplicates (n=2, 3).
(§3) Because TAK1 is known to be a downstream kinase of TNF, TGFβ, and IL-1 receptors, a candidate approach was used to survey expression of TNFα/β, TGFβ, and IL-1α/β.

[3] = tested on: PDAC cells; assay: Apoptosis after SN38 with autophagy inhibition (HCQ, Beclin-1 ablation); assay type: cell-based, human
From the text: FIG. 4D contains immunoblot images of MIA paca-2 and Pa01c cells following treatment with SN38, HCQ, or the combination. P values from two-way ANOVA with Sidak's multiple comparison test and error bars are mean+SEM. ***P=0.0009, *P=0.035.
FIG. 4F contains immunoblot images of MIA paca-2 control cells or Beclin 1 (BECN1) knockout treated with SN38, ATI-450, or the combination.
FIG. 4G contains scatter plots (left) and a graph summarizing quantification of a FACS analysis of MIA paca-2 control cells or Beclin 1 knockout cells treated with control (DMSO) or SN38 10 μM for 24 hours; graphic quantification of annexin V positive cells on the right.

[4] = tested on: MIA paca-2 cells; assay: FACS Annexin V and PI staining, MK2 inhibitor with or without SN38; assay type: cell-based, human; conditions: for apoptosis: MK2 inhibitor combined with SN38
From the text: P values from one-way ANOVA with Dunnett's multiple comparison test and error bars are mean+SEM. **P<0.0021, ****P<0.0001.

[5] = tested on: PDAC lines; assay: Recombinant TNFα treatment of PDAC lines: p-Hsp27, PARP cleavage, Annexin V; assay type: cell-based, human; conditions: for TNFα-induced p-Hsp27 / apoptosis: inhibitor plus TNFα
[6] = patients with rheumatoid arthritis; cited from earlier work
[7] = tested on: p-Hsp27; assay: Immunoblot of p-Hsp27 with MK2 inhibitors (SN38 or UV); assay type: cell-based, human; conditions: at baseline and following SN38 treatment
Protocol: FIG. 2E contains immunoblot images showing PARP cleavage of MIA paca-2 and Pa01c cells treated as in FIG. 1D.
FIG. 2H contains immunoblot images of p-p38, p-MK2, and p-Hsp27 from MIA paca-2 and Pa01c cells treated with 40 J/m2 of ultraviolet light (UV) alone or with MK2 inhibitor PF-3644022.
FIG. 2I contains immunoblot images of p-MK2 and p-Hsp27 from Pa01c cells treated with 40 J/m2 UV light, alone or with MK2 inhibitor ATI-450.
Western blotting was performed according to standard procedures. Cells grown in culture were washed twice in ice-cold 1×PBS and lysed in ice-cold RIPA buffer ([…]) containing 1× protease inhibitor (Sigma), NaVO3, Na pyrophosphate, and NaF. Protein lysates were quantified by Bradford assay and suspended in 6×SDS sample buffer, followed by boiling for 5 min at 95 C. 40 ug of protein lysate was resolved on SDS-PAGE and blotted on nitrocellulose membrane. Antibodies used included p38 MAPK (CST 8690S), p38 MAPK T180/Y182 (CST 9215S), MK2 total (CST 12155S), MK2 T334 (CST 3041S), MK2 T222 (3316S), Hsp27 total (CST 2042S), Hsp27 phos S82 (9709S), ? H2Ax (CST 9718S), JNK T183/Y185 (CST 4668), GSK3 beta phos S9 (CST 5558), ATR phos T1989 (CST 58014), ATM phos 51981 (CST 4526), AMPKα1 phos T172 (CST 2335T), and GAPDH (sc-47724). […]

[8] = tested on: non-pancreatic cancer cell lines (colon, gastric, breast); assay: Apoptosis of non-pancreatic cancer cell lines with SN38 and ATI-450; assay type: cell-based; conditions: combination SN38 and ATI-450
[9] = tested on: KPPC mice; assay: Autochthonous KPPC model, survival and tumor analysis; assay type: in vivo
Protocol: (§4) Tumors were formalin-fixed, paraffin-embedded, sectioned, and stained with hematoxylin and eosin (H&E). Immunohistochemistry (IHC) staining was performed using the following antibodies: p-Hsp27 S82 (CST cat #9709S), p-MK2 T334 (CST cat #3041S), p-p38 T180/Y182 (CST cat #9215S). Ten 200× or 400× power fields were analyzed per tumor independently by two individuals, and data were presented as mean+SEM of collated data. IHC sections were interpreted independently by two individual reviewers and representative data agreeable to all members were presented.
(§5) KPPC (p48-Cre/p53Flox/Flox LSL-KRASG12D) mice were created as described in previous publications. Treatment began six weeks after birth when tumors spontaneously form in vivo. FOLFIFINOX treatment was given by weekly intraperitoneal (I.P.) injection of 5-FU 25 mg/kg, irinotecan 17.5 mg/kg, and oxaliplatin 3.3 mg/kg. ATI-450 treatment was given as drug-impregnated chow, ad libitum, starting six weeks after birth; when given in combination with chemotherapy, ATI-450 chow was begun the day prior to initiation of chemotherapy.
All mice were treated beginning at 6 weeks of age until humane endpoints were reached.

[10] = tested on: autophagy markers; assay: Autophagy markers (western blot, LC3 reporter) after SN38 with or without MK2 inhibitors; assay type: cell-based, human; conditions: for SN38-induced p-Beclin1 and LC3-II: MK2 inhibitor with SN38
[11] = tested on: KPPC mice; assay: KPPC mice, ATI-450 chow for two weeks, histologic analysis of pancreata; assay type: in vivo
Protocol: as §4, §5
To complement the human xenograft models, which lacked the desmoplastic tumor microenvironment and intact immune system essential for PDAC development, an autochthonous KPPC (p48-Cre; p53flox/flox; LSL-KRASG12D) mouse model was treated and observed. KPPC mice were treated with vehicle or ATI-450 ad libitum in chow starting from 6 weeks-old of age when foci of invasive PDAC start to appear. After two weeks of treatment, all mice were euthanized and their pancreata were subjected to histologic analysis.

[12] = tested on: p-Hsp27; assay: Immunoblot of p-MK2 and p-Hsp27 after individual chemotherapy agents; assay type: cell-based, human; conditions: for induction of p-MK2 and p-Hsp27: PDAC lines tested
Protocol: Western blotting was performed according to standard procedures. Cells grown in culture were washed twice in ice-cold 1×PBS and lysed in ice-cold RIPA buffer (10 nM Tris pH 7.4, 50 nM NaCl, 0.05% SDS, 0.05% Triton X-100, 0.5% sodium deoxycholate, and 10 nM EDTA) containing 1× protease inhibitor (Sigma), NaVO3, Na pyrophosphate, and NaF. Protein lysates were quantified by Bradford assay and suspended in 6×SDS sample buffer, followed by boiling for 5 min at 95 C. 40 ug of protein lysate was resolved on SDS-PAGE and blotted on nitrocellulose membrane. Antibodies used included p38 MAPK (CST 8690S), p38 MAPK T180/Y182 (CST 9215S), MK2 total (CST 12155S), MK2 T334 (CST 3041S), MK2 T222 (3316S), Hsp27 total (CST 2042S), Hsp27 phos S82 (9709S), ? H2Ax (CST 9718S), JNK T183/Y185 (CST 4668), GSK3 beta phos S9 (CST 5558), ATR phos T1989 (CST 58014), ATM phos 51981 (CST 4526), AMPKα1 phos T172 (CST 2335T), and GAPDH (sc-47724). Blots were imaged using chemiluminescent substrate (Thermo Scientific).

[13] = tested on: TNFα mRNA expression; assay: qPCR of cytokine expression after SN38, MIA Paca-2; assay type: cell-based, human; conditions: MIA Paca-2 cells, SN38 10 μM for 16 hours
Protocol: as §1, §2, §3

[14] = tested on: TNFα protein; assay: TNFα ELISA of Pa01c supernatant; assay type: cell-based, human; conditions: Pa01c cells, SN38 10 μM for 16 hours
Protocol: FIG. 3E is a graph summarizing TNFα ELISA of Pa01c cells treated with control or SN38 10 μM for 16 hours overnight. P values from one-way ANOVA with Dunnett's multiple comparison test and error bars are mean+SEM. *P<0.0332.
as §3

## COc1cc(O)c2c(c1)/C=C/C[C@H](O)[C@H](O)C(=O)/C=C\C[C@H](C)OC2=O [5z-7-oxozeanol, (5Z)-7-Oxozeaenol]
[1]
  SN38-induced p-p38, p-MK2, and p-Hsp27: completely blocked
  apoptotic effect of SN38: potentiated
[2]; Pa01c cells
  SN38-induced induction of TNFα: abrogated

## Cc1cnc(-c2ccnc(C(C)(C)O)n2)cc1-n1c(C)cc(OCc2ncc(F)cc2F)c(Cl)c1=O [ATI-450]
[3]; Beclin-1-ablated cells, added to SN38
  apoptosis: only marginally increased apoptosis
[4]
  apoptosis: replicated
[5]
  TNFα-induced p-Hsp27: abrogated
  apoptosis: augmented apoptosis
[6]
  tolerability: well-tolerated
[7]
  p-Hsp27: replicated
[8]
  apoptosis: sensitized the cells to apoptosis
[9]; addition of ATI-450 to FOLFIRINOX
  PDAC lesions: almost completely ablated
[9]; mouse, in vivo
  tumor histology (H&E): smaller but retained a significant fraction of overt PDAC
[9]; treated from 6 weeks of age until humane endpoints
  survival: improved survival significantly greater than vehicle
[9]; tumor sections
  p-Hsp27 (IHC), in vivo on-target effect: completely suppressed
[10]
  SN38-induced p-Beclin1 and LC3-II: robustly suppress
[11]; ATI-450 in chow from 6 weeks of age, two weeks
  PDAC burden of pancreata: significantly lower PDAC burdens
[11]; ATI-450 in chow, two weeks
  fractions of normal or early PanIN lesions: relatively higher fractions
  tumor fibrosis by Sirius Red staining: significantly less fibrotic
[11]; single agent
  progression of PDAC: significantly delayed

## Nc1ccn([C@@H]2O[C@H](CO)[C@@H](O)C2(F)F)c(=O)n1 [Gemcitabine]
[12]
  induction of p-MK2 and p-Hsp27: much lower degree

## O=C(Nc1cc(C(F)(F)F)cc(C(F)(F)F)c1)c1cc(Cl)ccc1O [IMD0354]
[2]; Pa01c cells
  SN38-induced induction of TNFα: abrogated

## Cc1ccc(-c2ccc3c(ccc4sc5c(c43)NC[C@@H](C)NC5=O)n2)cn1 [PF-3644022]
[4]; MK2 inhibitor alone
  toxicity to PDAC cells: not toxic
[4]
  apoptosis: significantly increased apoptosis
[7]
  p-Hsp27: abolished
[10]
  SN38-induced p-Beclin1 and LC3-II: robustly suppress

## CC(C)(C)C(=O)N1N=CC[C@H]1c1ccccc1 [RIPK inhibitor]
[5]
  TNFα-induced p-Hsp27: did not block p-Hsp27
  apoptosis: did not block p-Hsp27 or alter apoptosis
[1]
  SN38-induced p-p38, p-MK2, and p-Hsp27: not blocked

## CCc1c2c(nc3ccc(O)cc13)-c1cc3c(c(=O)n1C2)COC(=O)[C@]3(O)CC [SN38]
[13]
  TNFα mRNA expression: ~30 fold
[12]; MIA Paca-2 cells, vehicle, 5-FU, SN38 or oxaliplatin individually
  activation of p-Hsp27: most strongly activates Hsp27
[12]
  induction of p-MK2 and p-Hsp27: potently induced
[2]; Pa01c cells following SN38
  TNFβ expression: elevated
[2]; Pa01c cells, SN38 10 μM for 16 hours
  TNFα mRNA expression: ~30 fold
[10]; PDAC cells
  LC3-GFP reporter expression: significantly decreased
[10]; western blots
  autophagy markers: p-ULK1 (S555), p-AMPKα (T172), p-Beclin1 (S90), p62: markedly induced
[14]
  TNFα protein in supernatant: increased TNFα protein

## CCN(CCO)CCCC(C)Nc1ccnc2cc(Cl)ccc12 (stereo not drawn) [hydroxychloroquine]
[3]; PDAC cells treated with SN38 and HCQ
  apoptosis: significantly higher levels of apoptosis

## TNFα
[5]; recombinant TNFα alone
  apoptosis (PARP cleavage and Annexin V staining): induced apoptosis
  p-Hsp27: upregulated
